Results reported in patent US20240132431A1, “METHOD FOR ALKYLATING ACIDIC FUNCTIONAL GROUP” (Chugai Seiyaku Kabushiki Kaisha, priority 2021, published 2024).
Values belong to the compound of their own block, whether it stands above or below them.

Target: T1, Bcl-2 protein (Recombinant Human Bcl-2 Protein) (Homo sapiens, UniProt P10415)
T1 construct: purchased Novus NBP2-34889
Experiment: Binding evaluation of mixture library compounds to Bcl-2 using AS-MS (affinity selection mass spectrometry)
Settings: for ASMS ratio (%) n = 1 / ASMS ratio (%) n = 2: ASMS Ratio(%)=(A−C)/B×100; for ASMS ratio (%) n = 1: replicate n = 1; for ASMS ratio (%) n = 2: replicate n = 2
Summary of the method: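 ASMS Ratio (%) was calculated as (A−C)/B×100, where A is the protein sample after SEC, B the protein-free sample without SEC and C the protein-free sample after SEC. Each compound was at […] in a 1200-member pool with 20 μM Bcl-2, incubated 1 h at 23° C.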

[1] = AS-MS on the mixture of 1200 library compounds
[2] = AS-MS, mixture of 1200 compounds, Bcl-2

T1 sequence (P10415 whole entry): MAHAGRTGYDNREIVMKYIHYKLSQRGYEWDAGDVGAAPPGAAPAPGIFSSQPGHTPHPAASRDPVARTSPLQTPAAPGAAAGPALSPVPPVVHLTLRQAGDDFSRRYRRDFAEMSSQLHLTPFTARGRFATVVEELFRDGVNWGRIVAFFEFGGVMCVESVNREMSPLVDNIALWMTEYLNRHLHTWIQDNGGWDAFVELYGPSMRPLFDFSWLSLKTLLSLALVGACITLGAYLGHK

ASMS ratio (%) n = 1 [1]: 4.4%
ASMS ratio (%) n = 2 [1]: 0.6%
Compound: CCOc1cncc(-c2ccc(C(=O)N3CCN(c4ccc(C(=O)N(C)CC56CC7CC(CC(C7)C5)C6)cc4)CC3)cc2C)c1 [B3A026-01, N-(1-Adamantylmethyl)-4-[4-[4-(5-ethoxypyridin-3-yl)-3-methylbenzoyl]piperazin-1-yl]-N-methylbenzamide]

Compound: 4-[4-[4-(5-Ethoxypyridin-3-yl)-3-fluorobenzoyl]piperazin-1-yl]-N-propylbenzamide [B1M091-01]
ASMS ratio (%) n = 1 [1]: 0.0%
ASMS ratio (%) n = 2 [1]: 0.0%

Compound: CCOc1cccc(-c2ccc(C(C)N3CCN(c4ccc(C(=O)N(CC)CC)cc4)CC3)c(F)c2)c1 (stereo not shown) [B4J099-01, 4-[4-[1-[4-(3-Ethoxyphenyl)-2-fluorophenyl]ethyl]piperazin-1-yl]-N,N-diethylbenzamide]
ASMS ratio (%) n = 2 (AS-MS, mixture library, Bcl-2): 0.0%

ASMS ratio (%) n = 1 (AS-MS, mixture library, Bcl-2): 0.0%
ASMS ratio (%) n = 2 (AS-MS, mixture library, Bcl-2): 3.3%
Compound: CCOc1cccc(-c2cc(C(=O)N3CCN(c4ccc(C(=O)NS(C)(=O)=O)cc4)CC3)cc(C(C)(C)C)c2)c1 [B2I037-01, 4-[4-[3-tert-Butyl-5-(3-ethoxyphenyl)benzoyl]piperazin-1-yl]-N-methylsulfonylbenzamide]

ASMS ratio (%) (n = 1): 0.0%
ASMS ratio (%) (n = 2): 0.0%
Compound: CCOc1cccc(C#Cc2ccccc2CN2CCN(c3ccc(C(=O)NS(=O)(=O)C(C)(C)C)nn3)CC2)c1 [B2L095-01, N-tert-Butylsulfonyl-6-[4-[[2-[2-(3-ethoxyphenyl)ethynyl]phenyl]methyl]piperazin-1-yl]pyridazine-3-carboxamide]

ASMS ratio (%) (n = 1): 0.0%
ASMS ratio (%) (n = 2): 0.0%
Compound: CCOc1cccc(-c2cc(CN3CCN(c4ccc(C(=O)NS(C)(=O)=O)cc4)CC3)cc(OC(C)C)c2)c1 [B2I057-01, 4-[4-[[3-(3-Ethoxyphenyl)-5-propan-2-yloxyphenyl]methyl]piperazin-1-yl]-N-methylsulfonylbenzamide]

ASMS ratio (%) n = 1 [2]: 10.4%
ASMS ratio (%) n = 2 [2]: 8.4%
Compound: CCOc1cncc(-c2cc(C(=O)N3CCN(c4ccc(C(=O)NCC56CC7CC(CC(C7)C5)C6)cc4)CC3)cc(C(F)(F)F)c2)c1 [B1A040-01, N-(1-Adamantylmethyl)-4-[4-[3-(5-ethoxypyridin-3-yl)-5-(trifluoromethyl)benzoyl]piperazin-1-yl]benzamide]

ASMS ratio (%) n = 1 [2]: −0.1%
ASMS ratio (%) n = 2 [2]: 0.5%
Compound: CCOc1cncc(-c2ccccc2CN2CCN(c3ccc(C(=O)NCC(F)(F)F)cc3)CC2)c1 [B1K046-01, 4-[4-[[2-(5-Ethoxypyridin-3-yl)phenyl]methyl]piperazin-1-yl]-N-(2,2,2-trifluoroethyl)benzamide]

ASMS ratio (%) (n = 1): 44.0%
ASMS ratio (%) (n = 2): 39.5%
Compound: CCOc1cccc(-c2ccc(C(=O)N3CCN(c4ccc(C(=O)NS(=O)(=O)c5ccc(NCCSc6ccccc6)c(C(F)(F)F)c5)nn4)CC3)cc2F)c1 [B2R005-01, 6-[4-[4-(3-ethoxyphenyl)-3-fluorobenzoyl]piperazin-1-yl]-N-[4-(2-phenylsulfanylethylamino)-3-(trifluoromethyl)phenyl]sulfonylpyridazine-3-carboxamide]

Compound: CCOc1cncc(-c2cc(CN3CCN(c4ccc(C(=O)NS(=O)(=O)C(C)(C)C)cc4)CC3)cc(OC(C)C)c2)c1 [B2L058-01]
ASMS ratio (%) (n = 1): 0.0%
ASMS ratio (%) (n = 2): 0.0%

ASMS ratio (%) (n = 1): 0.0%
ASMS ratio (%) (n = 2): −7.4%
Compound: CCOc1cncc(-c2ccc(CN3CCN(c4ccc(C(=O)NS(=O)(=O)c5ccc(NCCSc6ccccc6)c(C(F)(F)F)c5)cc4)CC3)cc2F)c1 [B2R052-01, 4-[4-[[4-(5-Ethoxypyridin-3-yl)-3-fluorophenyl]methyl]piperazin-1-yl]-N-[4-(2-phenylsulfanylethylamino)-3-(trifluoromethyl)phenyl]sulfonylbenzamide]

Compound: CCOc1cccc(-c2ccc(CN3CCN(c4ccc(C(=O)N(CC)CC)cc4)CC3)cc2C)c1 [B4J047-01, 4-[4-[[4-(3-Ethoxyphenyl)-3-methylphenyl]methyl]piperazin-1-yl]-N,N-diethylbenzamide]
ASMS ratio (%) n = 1 [1]: −6.6%
ASMS ratio (%) n = 2 [1]: 0.0%

ASMS ratio (%) n = 1 [1]: −1.1%
ASMS ratio (%) n = 2 [1]: −0.8%
Compound: CCOc1cncc(-c2ccccc2CCC(=O)N2CCN(c3ccc(C(=O)N(CC)CC)nn3)CC2)c1 [B4J012-01, 6-[4-[3-[2-(5-Ethoxypyridin-3-yl)phenyl]propanoyl]piperazin-1-yl]-N,N-diethylpyridazine-3-carboxamide]

ASMS ratio (%) n = 1 [1]: 0.0%
ASMS ratio (%) n = 2 [1]: −0.8%
Compound: CCOc1cncc(-c2ccc(C(=O)N3CCN(c4ccc(C(=O)N(CC)CC)nn4)CC3)c3ccccc23)c1 [B4J014-01, 6-[4-[4-(5-Ethoxypyridin-3-yl)naphthalene-1-carbonyl]piperazin-1-yl]-N,N-diethylpyridazine-3-carboxamide]

ASMS ratio (%) n = 1 [1]: 4.1%
ASMS ratio (%) n = 2 [1]: −2.2%
Compound: CCOc1cccc(-c2cc(CN3CCN(c4ccc(C(=O)Nc5ccc(OC)cc5)cc4)CC3)cc(OC(C)C)c2)c1 [B1O057-01, 4-[4-[[3-(3-Ethoxyphenyl)-5-propan-2-yloxyphenyl]methyl]piperazin-1-yl]-N-(4-methoxyphenyl)benzamide]

ASMS ratio (%) n = 1 [2]: 0.9%
ASMS ratio (%) n = 2 [2]: −0.9%
Compound: CCOc1cccc(-c2ccc(C(C)N3CCN(c4ccc(C(=O)NCC56CC7CC(CC(C7)C5)C6)cc4)CC3)c(F)c2)c1 (stereo not shown) [B1A099-01, N-(1-Adamantylmethyl)-4-[4-[1-[4-(3-ethoxyphenyl)-2-fluorophenyl]ethyl]piperazin-1-yl]benzamide]

Compound: 4-[4-[1-[4-(3-Ethoxyphenyl)phenyl]ethyl]piperazin-1-yl]-N-propylbenzamide [B1M003-01]
ASMS ratio (%) n = 1 [2]: −1.9%
ASMS ratio (%) n = 2 [2]: 2.0%

ASMS ratio (%) n = 2 [1]: −0.4%
Compound: CCOc1cncc(-c2cc(OC)c(CN3CCN(c4ccc(C(=O)Nc5ccc(OC)cc5)nn4)CC3)c(OC)c2)c1 [B1O086-01, 6-[4-[[4-(5-Ethoxypyridin-3-yl)-2,6-dimethoxyphenyl]methyl]piperazin-1-yl]-N-(4-methoxyphenyl)pyridazine-3-carboxamide]

ASMS ratio (%) n = 1 [2]: 18.7%
ASMS ratio (%) n = 2 [2]: −7.1%
Compound: CCOc1cncc(-c2cc(CN3CCN(c4ccc(C(=O)NCC56CC7CC(CC(C7)C5)C6)nn4)CC3)cc(C(F)(F)F)c2)c1 [B1A088-01, N-(1-Adamantylmethyl)-6-[4-[[3-(5-ethoxypyridin-3-yl)-5-(trifluoromethyl)phenyl]methyl]piperazin-1-yl]pyridazine-3-carboxamide]

ASMS ratio (%) n = 1 (AS-MS, mixture library, Bcl-2): 0.0%
ASMS ratio (%) n = 2 (AS-MS, mixture library, Bcl-2): 0.0%
Compound: CCOc1cncc(-c2ccc(C(=O)N3CCN(c4ccc(C(=O)NS(C)(=O)=O)nn4)CC3)cc2F)c1 [B2I006-01, 6-[4-[4-(5-Ethoxypyridin-3-yl)-3-fluorobenzoyl]piperazin-1-yl]-N-methylsulfonylpyridazine-3-carboxamide]

ASMS ratio (%) n = 1 (AS-MS, mixture library, Bcl-2): 7.7%
ASMS ratio (%) n = 2 (AS-MS, mixture library, Bcl-2): 2.2%
Compound: CCOc1cncc(-c2ccc(C(=O)N3CCN(c4ccc(C(=O)NS(=O)(=O)CC56CC7CC(CC(C7)C5)C6)nn4)CC3)c3ccccc23)c1 [B2A014-01, N-(1-Adamantylmethylsulfonyl)-6-[4-[4-(5-ethoxypyridin-3-yl)naphthalene-1-carbonyl]piperazin-1-yl]pyridazine-3-carboxamide]

ASMS ratio (%) n = 1 (AS-MS, mixture library, Bcl-2): 13.0%
ASMS ratio (%) n = 2 (AS-MS, mixture library, Bcl-2): 0.0%
Compound: CCOc1cccc(-c2csc(CN3CCN(c4ccc(C(=O)NS(=O)(=O)CC56CC7CC(CC(C7)C5)C6)nn4)CC3)c2)c1 [B2A093-01, N-(1-Adamantylmethylsulfonyl)-6-[4-[[4-(3-ethoxyphenyl)thiophen-2-yl]methyl]piperazin-1-yl]pyridazine-3-carboxamide]

ASMS ratio (%) n = 1 [1]: 0.0%
ASMS ratio (%) n = 2 [1]: 0.0%
Compound: CCOc1cncc(C#Cc2cncc(C(=O)N3CCN(c4ccc(C(=O)N(C)CC56CC7CC(CC(C7)C5)C6)nn4)CC3)c2)c1 [B3A010-01, N-(1-Adamantylmethyl)-6-[4-[5-[2-(5-ethoxypyridin-3-yl)ethynyl]pyridine-3-carbonyl]piperazin-1-yl]-N-methylpyridazine-3-carboxamide]

ASMS ratio (%) n = 1 [1]: 2.6%
ASMS ratio (%) n = 2 [1]: 3.2%
Compound: CCOc1cncc(-c2ccc(CN3CCN(c4ccc(C(=O)Nc5ccc(OC)cc5)cc4)CC3)c(OC)c2)c1 [B1O054-01, 4-[4-[[4-(5-Ethoxypyridin-3-yl)-2-methoxyphenyl]methyl]piperazin-1-yl]-N-(4-methoxyphenyl)benzamide]

ASMS ratio (%) n = 1 [1]: 5.0%
ASMS ratio (%) n = 2 [1]: 1.8%
Compound: CCOc1cncc(-c2cc(C(=O)N3CCN(c4ccc(C(=O)N(C)CC56CC7CC(CC(C7)C5)C6)nn4)CC3)cc(C(F)(F)F)c2)c1 [B3A018-01, N-(1-Adamantylmethyl)-6-[4-[3-(5-ethoxypyridin-3-yl)-5-(trifluoromethyl)benzoyl]piperazin-1-yl]-N-methylpyridazine-3-carboxamide]

ASMS ratio (%) (n = 1): 0.0%
ASMS ratio (%) (n = 2): −1.0%
Compound: CCOc1cncc(C#Cc2cncc(C(=O)N3CCN(c4ccc(C(=O)NS(=O)(=O)C(C)(C)C)cc4)CC3)c2)c1 [B2L032-01, N-tert-Butylsulfonyl-4-[4-[5-[2-(5-ethoxypyridin-3-yl)ethynyl]pyridine-3-carbonyl]piperazin-1-yl]benzamide]

ASMS ratio (%) n = 1 (AS-MS, mixture library, Bcl-2): 0.0%
ASMS ratio (%) n = 2 (AS-MS, mixture library, Bcl-2): 0.0%
Compound: CCOc1cncc(-c2ccc(C(=O)N3CCN(c4ccc(C(=O)NS(=O)(=O)CC56CC7CC(CC(C7)C5)C6)nn4)CC3)cc2C)c1 [B2A004-01, N-(1-Adamantylmethylsulfonyl)-6-[4-[4-(5-ethoxypyridin-3-yl)-3-methylbenzoyl]piperazin-1-yl]pyridazine-3-carboxamide]
